Data published in ChEMBL document CHEMBL1130362, “Pyrrolylquinoxalinediones: The importance of pyrrolic substitution on AMPA receptor binding” (Bioorg Med Chem Lett, 1997).
pKi: −log10 of the molar value.

Legend:
[1] = biological target: Glutamate receptor ionotropic AMPA (Homo sapiens, UniProt P42261+P42262+P42263+P48058)
Description: Displacement of [3H]AMPA from AMPA receptor

Mus musculus = assay: In vivo AMPA antagonism to protect 50% animals after intraperitoneal administration of the compound; assay type: functional; conditions: ip
[2] = biological target: Glutamate receptor ionotropic, NMDA 2C (Rattus norvegicus, UniProt Q00961); assay: Ability to displace [3H]glycine from NMDA receptor
Sequence of Glutamate receptor ionotropic, NMDA 2C (Q00961 whole entry): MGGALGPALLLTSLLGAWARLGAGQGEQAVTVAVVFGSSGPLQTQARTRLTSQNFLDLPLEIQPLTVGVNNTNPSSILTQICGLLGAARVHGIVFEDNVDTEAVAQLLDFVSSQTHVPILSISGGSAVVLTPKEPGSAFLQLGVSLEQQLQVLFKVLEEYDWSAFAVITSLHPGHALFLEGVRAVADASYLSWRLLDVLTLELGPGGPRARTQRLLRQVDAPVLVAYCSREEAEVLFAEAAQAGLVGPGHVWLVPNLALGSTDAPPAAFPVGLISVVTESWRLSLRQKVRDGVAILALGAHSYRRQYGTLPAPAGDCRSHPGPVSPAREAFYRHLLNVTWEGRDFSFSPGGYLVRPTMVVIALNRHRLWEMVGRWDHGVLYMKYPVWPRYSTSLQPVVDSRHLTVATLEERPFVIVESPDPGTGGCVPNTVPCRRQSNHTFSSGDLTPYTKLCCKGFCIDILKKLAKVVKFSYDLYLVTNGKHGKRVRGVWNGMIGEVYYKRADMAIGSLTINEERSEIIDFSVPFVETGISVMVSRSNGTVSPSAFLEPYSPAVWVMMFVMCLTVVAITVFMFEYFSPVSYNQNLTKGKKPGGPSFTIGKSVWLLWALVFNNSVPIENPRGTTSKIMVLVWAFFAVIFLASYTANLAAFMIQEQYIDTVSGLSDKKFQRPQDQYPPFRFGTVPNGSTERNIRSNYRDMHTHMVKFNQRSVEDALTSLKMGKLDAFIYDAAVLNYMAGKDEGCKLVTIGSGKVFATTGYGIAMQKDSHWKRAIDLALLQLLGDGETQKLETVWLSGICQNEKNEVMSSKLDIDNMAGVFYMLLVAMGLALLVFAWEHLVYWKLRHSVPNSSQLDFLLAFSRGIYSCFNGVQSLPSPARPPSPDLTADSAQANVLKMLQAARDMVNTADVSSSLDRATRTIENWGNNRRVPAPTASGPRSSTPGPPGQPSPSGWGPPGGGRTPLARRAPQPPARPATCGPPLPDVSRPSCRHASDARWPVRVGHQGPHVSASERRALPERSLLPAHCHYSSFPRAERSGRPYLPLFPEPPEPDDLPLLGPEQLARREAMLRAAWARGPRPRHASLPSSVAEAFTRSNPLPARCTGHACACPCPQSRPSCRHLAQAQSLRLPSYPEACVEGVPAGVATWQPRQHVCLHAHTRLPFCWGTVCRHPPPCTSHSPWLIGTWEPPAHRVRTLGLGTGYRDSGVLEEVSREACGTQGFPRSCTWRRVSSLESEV

Row | SMILES | pKi [1] | ED50 (Mus musculus) [mg/kg] | pKi [2]
1 | O=C(O)Cn1c(=O)c(=O)[nH]c2cc([N+](=O)[O-])c(-n3ccc(CNC(=O)NCCc4ccncc4)c3)cc21 | 7.02 |  | 
2 | O=C(O)Cn1c(=O)c(=O)[nH]c2cc(C(F)(F)F)c(-n3ccc(CNC(=O)Nc4ccc(Br)cc4)c3)cc21 | 8.40 | 4.1 | < 4.52
3 | O=C(NCc1ccn(-c2cc3nc(O)c(O)nc3cc2[N+](=O)[O-])c1)Nc1ccccc1 | 6.60 | 30 | < 4.52
4 | O=C(O)Cn1c(=O)c(=O)[nH]c2cc([N+](=O)[O-])c(-n3ccc(CC(=O)N4CCCCC4)c3)cc21 | 5.52 |  | 
5 | O=C(O)Cn1c(=O)c(=O)[nH]c2cc(C(F)(F)F)c(-n3ccc(CNC(=O)c4ccccc4)c3)cc21 | 7.11 | > 30 | < 4.52
6 | NCc1ccn(-c2cc3nc(O)c(O)nc3cc2C(F)(F)F)c1 | 6.01 |  | 
7 | O=C(O)Cn1c(=O)c(=O)[nH]c2cc(C(F)(F)F)c(-n3ccc(CNC(=O)NCc4ccccc4)c3)cc21 | 7.31 | 30 | < 4.52
8 | NCc1ccn(-c2cc3nc(O)c(O)nc3cc2[N+](=O)[O-])c1 | 5.70 |  | 
9 | O=Cc1ccn(-c2cc3nc(O)c(O)nc3cc2C(F)(F)F)c1 | 6.19 |  | 
10 | O=C(O)Cn1c(=O)c(=O)[nH]c2cc([N+](=O)[O-])c(-n3cccc3)cc21 | 7.15 |  | 
11 | O=C(O)Cn1c(=O)c(=O)[nH]c2cc(C(F)(F)F)c(-n3ccc(CNC(=O)Nc4ccc(C(F)(F)F)cc4)c3)cc21 | 8.30 | 14 | < 4.52
12 | Cc1ccc(C)n1-c1cc2nc(O)c(O)nc2cc1C(F)(F)F | < 4.60 |  | 
13 | O=C(O)Cn1c(=O)c(=O)[nH]c2cc(C(F)(F)F)c(-n3ccc(CNC(=O)Cc4ccccc4)c3)cc21 | 6.85 |  | 
14 | O=C(O)Cn1c(=O)c(=O)[nH]c2cc(C(F)(F)F)c(-n3ccc(CNC(=O)Nc4ccc([N+](=O)[O-])cc4)c3)cc21 | 8.30 | 5.5 | < 4.52
15 | O=C(O)Cn1c(=O)c(=O)[nH]c2cc(C(F)(F)F)c(-n3ccc(CNC(=O)Nc4ccccc4)c3)cc21 | 7.82 | 18 | < 4.52
16 | NCc1ccn(-c2cc3c(cc2[N+](=O)[O-])[nH]c(=O)c(=O)n3CC(=O)O)c1 | 6.08 |  | 
17 | O=c1[nH]c2cc(-n3ccnc3)c([N+](=O)[O-])cc2[nH]c1=O [YM-90K] | 6.87 |  | 
18 | O=C(O)Cn1c(=O)c(=O)[nH]c2cc(C(F)(F)F)c(-n3cccc3)cc21 | 6.74 |  | 

Row | SMILES | pKi [1] | ED50 (Mus musculus) [mg/kg] | pKi [2]
19 | NS(=O)(=O)c1cccc2c1c([N+](=O)[O-])cc1nc(O)c(O)nc12 [NBQX] |  | > 50 | 
20 | O=C(O)Cn1c(=O)c(=O)[nH]c2cc([N+](=O)[O-])c(-n3ccc(CNC(=O)c4ccncc4)c3)cc21 | 6.55 |  | 
21 | O=C(O)Cn1c(=O)c(=O)[nH]c2cc([N+](=O)[O-])c(-n3ccc(CNC(=O)CCc4ccccc4)c3)cc21 | 6.30 |  | 
22 | O=C(NCc1ccccc1)c1cccn1-c1cc2nc(O)c(O)nc2cc1C(F)(F)F | < 4.60 |  | 
23 | O=C(O)Cn1c(=O)c(=O)[nH]c2cc(C(F)(F)F)c(-n3ccc(/C=N/OCc4ccccc4)c3)cc21 | 6.60 |  | 
24 | COC(=O)c1cccn1-c1cc2nc(O)c(O)nc2cc1C(F)(F)F | < 4.60 |  | 
25 | Cc1ccc(C)n1-c1cc2c(cc1C(F)(F)F)[nH]c(=O)c(=O)n2CC(=O)O | 5.70 |  | 
26 | O=[N+]([O-])c1cc2nc(O)c(O)nc2cc1-n1cccc1 | 6.40 |  | 
27 | O=C(O)Cn1c(=O)c(=O)[nH]c2cc([N+](=O)[O-])c(-n3ccc(CNC(=O)Nc4ccccc4)c3)cc21 | 7.15 | > 30 | < 4.52
28 | Oc1nc2cc(-n3cccc3)c(C(F)(F)F)cc2nc1O | 5.52 |  | 
29 | CCN(CC)Cc1ccn(-c2cc3c(cc2C(F)(F)F)[nH]c(=O)c(=O)n3CC(=O)O)c1 | 6.05 |  | 
30 | O=C(O)Cn1c(=O)c(=O)[nH]c2cc([N+](=O)[O-])c(-n3ccc(/C=N/OCc4ccccc4)c3)cc21 | 6.68 |  | 
31 | CN(Cc1ccccc1)Cc1ccn(-c2cc3nc(O)c(O)nc3cc2[N+](=O)[O-])c1 | 6.06 |  | 
32 | CC(=O)NCc1ccn(-c2cc3c(cc2C(F)(F)F)[nH]c(=O)c(=O)n3CC(=O)O)c1 | 7.12 | 10 | < 4.52
33 | NCc1ccn(-c2cc3c(cc2C(F)(F)F)[nH]c(=O)c(=O)n3CC(=O)O)c1 | 5.00 |  | 
34 | O=C(NCc1ccn(-c2cc3nc(O)c(O)nc3cc2[N+](=O)[O-])c1)Nc1ccncc1 | 6.96 |  | 
35 | Cc1ccc(C)n1-c1cc2nc(O)c(O)nc2cc1[N+](=O)[O-] | 4.70 |  | 
36 | O=C(O)c1cccn1-c1cc2nc(O)c(O)nc2cc1C(F)(F)F | < 4.60 |  | 
